Read-outs that look alike come from different tables or passages of the source.
Assays:
Hela cells [1] = assay: Cell-cycle assay (flow cytometry, propidium iodide); assay type: cell-based, human; details: 24 h; for number of cells in the mitotic G2/M phase: in words
Protocol: Then, the preset drug concentration was added and incubated for 24 h. Cells were collected by centrifugation and were fixed overnight with pre-cooled ethanol (70%) and washed twice with buffer, propidium-iodide staining solution was added (0.5 mL/well), and they were incubated at 37 °C for 30 min in the dark for flow detection.

Hela [2] = assay: In vitro antiproliferative assay (CCK-8); assay type: cell-based, human; details: Homo sapiens, HeLa; CCK-8, 48 h, mean ± SD
From the text: The experiment was repeated three times.

Mda-mb-231 = assay: In vitro antiproliferative assay (CCK-8); details: Homo sapiens, MDA-MB-231, 48 h, read-out: IC50 ± SD Mda-mb-231
Protocol: (§1) Hela and MDA-MB-132 cells were grown in DMEM (Gibco) containing 10% FBS and 1% double antibody (penicillin 100 U/mL, streptomycin 100 μg/mL, Solarbio). […] All cell lines were purchased from the Xiangya Cell Bank, Central South University, Changsha, China, and incubated at 37 °C with 5% CO2 in a humidified atmosphere. […] Cytotoxicity assay was assessed using CCK-8 methods. The cells were seeded in a 96-well plate (2 × 10^3–3 × 10^3 cells/well), the 96-well plate was incubated at 37 °C with 5% CO2 in a humidified atmosphere, and the cells were grown in a monolayer; the original culture was discarded. A total of 100 μL of drug-containing medium with a specific concentration gradient was added and then cultivated for 48 h; 10 μL/well of CCK-8 solution was added, put in an incubator, and incubated for 1 h and read with a multi-function microplate reader at a wavelength of 450 nm. The inhibition rate was calculated, and the IC50 results were calculated by GraphPad Prism 7 software. The experiment was repeated three times.

Mcf-7 [3] = assay: In vitro antiproliferative assay (CCK-8); details: Homo sapiens, MCF7, 48 h, read-out: IC50 ± SD Mcf-7
Protocol: as §1

[4] = molecular target: recombinant human Cdc20 protein (Homo sapiens, UniProt Q12834); assay: Surface plasmon resonance (SPR) assay; assay type: binding; details: for Kd: dissociation-equilibrium constant; for Kd / Kd (1/S): one-to-one model; for Kd (1/S): dissociation-rate constant
recombinant human Cdc20 protein, sequence (Q12834 whole entry): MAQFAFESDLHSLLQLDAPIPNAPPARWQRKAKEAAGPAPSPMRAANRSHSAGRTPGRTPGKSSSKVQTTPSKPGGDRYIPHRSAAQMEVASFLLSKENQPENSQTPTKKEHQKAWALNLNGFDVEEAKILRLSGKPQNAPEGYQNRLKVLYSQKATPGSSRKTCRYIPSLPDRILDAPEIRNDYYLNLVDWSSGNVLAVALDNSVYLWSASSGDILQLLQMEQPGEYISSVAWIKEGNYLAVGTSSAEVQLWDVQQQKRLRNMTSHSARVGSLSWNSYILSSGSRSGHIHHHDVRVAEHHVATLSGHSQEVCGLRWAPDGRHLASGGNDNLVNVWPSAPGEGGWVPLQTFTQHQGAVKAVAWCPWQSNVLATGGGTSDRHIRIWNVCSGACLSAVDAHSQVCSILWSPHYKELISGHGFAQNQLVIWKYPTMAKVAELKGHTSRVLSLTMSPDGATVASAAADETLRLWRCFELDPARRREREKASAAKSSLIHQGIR
Protocol: Surface plasmon resonance (SPR) analysis can measure the interaction process between various biomolecules, such as polypeptides, proteins, oligonucleotides, and oligosaccharides, as well as viruses, bacteria, cells, and small molecular compounds. First, we installed the COOH chip according to the standard operating procedure of the OpenSPRTM instrument and started running it at the maximum flow rate (150 μL/min). The detection buffer was PBS, and after reaching the signal baseline, 200 μL of isopropanol were loaded and the air was removed by running for 10 s. After reaching baseline, the sample loop was flushed with buffer and evacuated with air, and after the signal reached baseline, the buffer flow rate was adjusted to 20 μL/min. A total of 200 μL of EDC/NHS (1:1) solution (20 μL/min, 4 min), 200 μL EDC/NHS (1:1) solution (20 μL/min, 4 min), and 200 μL recombinant human Cdc20 protein buffer was loaded and run for 4 min (20 μL/min), and the sample loop was rinsed with buffer and drained with null air. A total of 200 μL of blocking solution was loaded (20 μL/min, 4 min), and the sample loop was flushed with buffer and evacuated with air. After the baseline was stable, the analyte was diluted with buffer and loaded at 20 μL/min. The binding time of the analyte and the ligand was 240 s, and the natural dissociation time was 480 s. The analysis software used for the experimental results was TraceDrawer (Ridgeview Instruments ab, Sweden), and the analysis method was the one-to-one analysis model.
Molecules were tested in a dilution series starting at 500 μM. The analyte was diluted with buffer and loaded at 20 μL/min. The binding time of the analyte and the ligand was 240 s, and the natural dissociation time was 480 s. The analysis software used for the experimental results was TraceDrawer (Ridgeview Instruments AB, Sweden), and the analysis method was the one-to-one analysis model.

Hepg2 [5] = assay: In vitro antiproliferative assay (CCK-8); details: Homo sapiens, HepG2, 48 h, read-out: IC50 ± SD Hepg2
Protocol: as §1

Hela cells [6] = assay: Annexin V-FITC/PI double-staining cell-apoptosis assay; assay type: cell-based, human; details: 24 h, in words
Protocol: Then, the preset drug concentration was added and incubated for 24 h. Cells were collected by centrifugation, resuspended in buffer, and then stained by adding Annexin V-FITC (5 μL) and PI Staining Solution (5 μL) and incubated at room temperature for 10 min. The samples were detected by flow cytometry within 1 h after staining. Flow cytometer (Beckman Coulter Cytofex) was used for subsequent detection, and the data were processed with FlowJo software.

Mcf-7 [7] = tested on: Mcf-7; design: method as in PMID 32290657; details: previous studies; read-out: IC50 ± SD Mcf-7; cited from earlier work
Hepg2 [8] = tested on: Hepg2; design: method as in PMID 32290657; details: previous studies; read-out: IC50 ± SD Hepg2; cited from earlier work
Hela [9] = tested on: Hela; design: method as in PMID 32290657; details: previous studies; read-out: IC50 ± SD Hela; cited from earlier work
tubulin [10] = tested on: tubulin; design: method as in PMID 32290657; details: previous research of the authors; cited from earlier work
[11] = tested on: Cdc20 and downstream substrates (cyclin B1, securin, Bim, cleaved PARP) in Hela cells; assay: Western blot of Cdc20 and Cdc20 downstream proteins; assay type: cell-based, human; details: for Cdc20 protein level: 12 h after addition
Protocol: The lysate for extracting cellular proteins was prepared with bromophenol blue (0.02%), dithiothreitol (DTT; 0.5M), glycerol (30%), sodium dodecyl sulfate (SDS; 10%) and Tris-Cl (0.25M, pH 6.8). Protein extracts were separated according to molecular weight by the polyacrylamide gel electrophoresis (PAGE) method and then transferred to solid-phase support (PVDF membrane). The PVDF membrane was placed in a blocking solution containing 5% skim milk for 2 h, followed by incubation with primary and secondary antibodies, and the bands were detected and imaged in the ChemiDocTMXRS+ imaging system.
Figure 1 (A) Expression levels of Cdc20 protein in different cell lines. (B) Cdc20 levels were measured by Western blot 12 h after the addition of compounds. The reproducibility of the results was confirmed by at least two separate experiments. (a) Quantitative results of (A) compared to Hela. (b) Quantitative results of (B) compared to control. Statistical significance was calculated by two-tailed unpaired t test.
Figure 4 (A) Protein levels of cyclin B1 and securin were measured by Western blot. (B) Protein levels of Bim were measured by Western blot. (C) Protein levels of cleaved PARP were measured by Western blot. […] (a–d) Quantitative results of (A–C) compared to control. Statistical significance was calculated by two-tailed unpaired t test (* p < 0.05, ** p < 0.01, *** p < 0.001).

tubulin [12] = assay: Tubulin polymerization assay in vitro; assay type: biochemical
Protocol: We used an HTS-Tubulin Polymerization Assay Kit (BK004P, Cytoskeleton, USA) to assess the inhibitory effect of compounds on tubulin polymerization. Tubulin solution was prepared, and the compound solution and paclitaxel solution were tested according to the instructions of the kit. General tubulin buffer, paclitaxel solution, and 10× test compound solution were added to a 96-well plate (10 μL/well) and incubated at 37 °C for two minutes. A total of 100 μL of tubulin solution was pipetted into the corresponding wells. The plate was immediately placed on a multi-function microplate reader at 37 °C, and the continuous kinetic values were recorded.
Figure 7 The effect of compound 20 and compound 27 on in vitro tubulin polymerization was tested. Polymerization of purified tubulin was performed in a cell-free assay. Tubulin protein was incubated at 37 °C in a reaction buffer exposed to vehicle control or test compounds at the indicated concentrations. Absorbance at 340 nm was monitored at 37 °C every 30 s for 1 h.

four cancer-cell lines = assay: In vitro antiproliferative assay (CCK-8), cell line not given; details: Homo sapiens, read-out: IC50 (antiproliferative activity)

Compound | number of cells in the mitotic G2/M phase (Hela cells [1]) | IC50 (Hela [2]) [µM] | IC50 (Mda-mb-231) [µM] | IC50 (Mcf-7 [3]) [µM] | Kd [4] [µM] | Kd (1/S) [4] | IC50 (Hepg2 [5]) [µM] | apoptotic rates (Hela cells [6]) | IC50 (Hela [9]) [µM] | expression of Bim [11] | expression of cleaved PARP [11] | level of cyclin B1 protein [11] | level of securin protein [11] | Cdc20 protein level [11] | also measured
Cc1ncc([N+](=O)[O-])n1CCOC(=O)N[C@@H](Nc1ncccn1)C(Cl)(Cl)Cl (racemic) [Apcin] | significant increase | 182 ± 12.5 | > 100 | > 100 | 236 | 2.33 × 10^−2 1/S | > 100 | increased in a concentration-dependent way |  |  |  |  |  |  | P4 gate (cells in the G2/M phase) (Hela cells [1]; 150μm): 34.87%
Cc1ncc([N+](=O)[O-])n1CCOC(=O)N[C@H](Nc1c(Cl)nc(N)nc1Cl)C(Cl)(Cl)Cl [Compound 7d] |  |  |  |  |  |  |  |  | 63.2 ± 0.9 |  |  |  |  |  | IC50 (Mcf-7 [7]): 160 ± 5 µM; IC50 (Hepg2 [8]): 25.6 ± 6.1 µM
Nc1nc(F)nc2c1ncn2[C@H](NC(=O)OCCN1CCOCC1)C(Cl)(Cl)Cl [Compound 9f, reference compound] |  | 0.1 ± 0.02 | 1.4 ± 0.22 | 0.61 ± 0.12 |  |  | 0.41 ± 0.36 |  | 0.3 ± 0.2 |  |  |  |  |  | effect on Cdc20 and microtubules (tubulin [10]): dual inhibitory effects of Cdc20 and microtubules
Nc1c(Cl)nc(NC(NC(=O)NCCc2ccccc2)C(Cl)(Cl)Cl)nc1Cl (stereo not drawn) [Compound 20, 1-(1-((5-amino-4,6-dichloropyrimidin-2-yl)amino)-2,2,2-trichloroethyl)-3-phenethylurea] | significant increase | 24.7 ± 2.01 | 30.4 ± 13 | 35 ± 3.06 | 79.6 | 5.78 × 10^−3 1/S | 31.2 ± 8.37 | increased in a concentration-dependent way |  | significantly increase | significantly increase | significantly increased | significantly increased | no effect | P4 gate (cells in the G2/M phase) (Hela cells [1]; 40μm): 41.09%; effect on microtubule polymerization (tubulin [12]; cell-free, purified tubulin, 37 °C, absorbance 340 nm, 30 μM): slightly promoted microtubule polymerization; binding affinity to Cdc20 relative to Apcin ([4]; from Kd values): about three times; IC50 (four cancer-cell lines): < 40 µM
Nc1nc(F)nc2c1ncn2C(NC(=O)NCCN1CCOCC1)C(Cl)(Cl)Cl (stereo not drawn) [Compound 27, 1-(1-(6-amino-2-fluoro-9H-purin-9-yl)-2,2,2-trichloroethyl)-3-(2-morpholinoethyl)urea] | slightly reduced | 0.06 ± 0.02 | 0.32 ± 0.04 | 0.27 ± 0.06 |  |  | 0.24 ± 0.11 | increased in a concentration-dependent way |  | significantly increase | significantly increase | significantly increased | significantly increased | no effect | effect on microtubule polymerization (tubulin [12]; cell-free, purified tubulin, 37 °C, absorbance 340 nm, 3 μM and 30 μM): promoted microtubule polymerization in a concentration-dependent manner
CC(=O)O[C@H]1C(=O)[C@@]2(C)[C@H]([C@H](OC(=O)c3ccccc3)[C@]3(O)C[C@H](OC(=O)[C@H](O)[C@@H](NC(=O)c4ccccc4)c4ccccc4)C(C)=C1C3(C)C)[C@]1(OC(C)=O)CO[C@@H]1C[C@@H]2O [paclitaxel, reference compound] |  |  |  |  |  |  |  |  |  |  |  |  |  |  | effect on microtubule polymerization (tubulin [12]; reference compound, concentration not given): promote microtubule polymerization

Reference: publication PMC9964651, “Discovery of Ureido-Based Apcin Analogues as Cdc20-specific Inhibitors against Cancer” (Pharmaceuticals, 2023)
